Assay results reported in patent US20250186456A1, “PYRIMIDINE-FUSED CYCLIC COMPOUND AND PREPARATION METHOD AND USE THEREOF” (Genfleet Therapeutics (Shanghai) Inc., priority 2021, published 2025).
Like-named read-outs stand apart in the source and are kept apart here.

How the values were obtained:
Format in all cases: cell-based, human
[1] = tested on: p-ERK in AGS cells (KRAS G12D mutation); experiment: Cell p-ERK assay (HTRF, Advance ERK phospho-T202/Y204 kit); details: AGS cells, 3 hours incubation with compound, HTRF, read-out: AGS p-ERK IC50
Method: AGS was purchased from ATCC; catalog No: CRL-1739; F12K was purchased from Gibco; catalog No: 21127-022; FBS was purchased from Gibco; catalog No: 10099-141C; trypsin (containing EDTA) was purchased from Gibco, catalog No: 25200-072; DMSO was purchased from VWRAMRESCO; catalog No: 0231-500 ML; 96-well cell culture plates were purchased from Corning; catalog No: 3599; white opaque 96-well plates were purchased from Cisbio; catalog No: 66PL96025; Advance ERK phospho-T202/Y204 kit was purchased from Cisbio; catalog No: 64AERPEH; cell counters were purchased from CHEMOMETEC; model No: NC-200; microplate reader was purchased from PerkinElmer; model No: Envison.
AGS is an endogenous human gastric adenocarcinoma cell line containing the KRAS^G12D mutation, cultured in F12K+10% FBS medium. On the first day of the experiment, cells in the logarithmic growth phase were taken, digested with trypsin (containing EDTA), collected, and counted. Approximately 20000 cells/well were seeded in a 96-well cell culture plate and cultured overnight in an incubator with 5% CO2. 1000X stock solutions of compounds at a 3.16-fold concentration gradient were prepared using DMSO, and diluted 200-fold into a 5X compound stock solution using the medium described above. The 5X compound stock solution was added to each cell culturing well the day after cell seeding at a final concentration of 1X and a DMSO content of 0.1%. DMSO was used as a control in the experiment. After the compound was added and the incubation was kept for 3 hours, the medium in the culture wells was removed. 50 μl of Cell lysis solution (from Advance ERK phospho-T202/Y204 kit, the same below) was added to each well, mixed well, and incubated for 30 minutes and then 16 μl of the mixed solution was transferred to a white opaque 96-well plate, another 16 μl of cell lysis solution was added to a well as a blank well. After transferring, 4 μl of p-ERK HTRF antibody mixture (from Advance ERK phospho-T202/Y204 kit) was added to each well. After incubation for 4 hours, HTRF fluorescence value (RLU) was read by a microplate reader, and p-ERK level inhibition rate (IR (%)=(RLU control-RLU compound)/(RLU control-RLU blank)×100%) of the compounds was calculated. The concentration of the compounds and corresponding cell p-ERK level inhibition rate were fitted using Prism 8 four-parameters method, and the IC50 value was calculated.

AGS cells (KRAS G12D) = experiment: Cell proliferation inhibition assay, 3D, CellTiter-Glo 3D, AGS; details: AGS 3D sphere model, 5 days incubation
From the text: (§1) AsPC-1 was purchased from ATCC; catalog No: CRL-1682; AGS was purchased from ATCC; catalog No: CRL-1739; RPMI1640 was purchased from Gibco; catalog No: 11875-093 2235123; F12K was purchased from Gibco; catalog No: 21127-022; FBS was purchased from Gibco; catalog No: 10099-141C; trypsin (containing EDTA) was purchased from Gibco; catalog No: 25200-072; CellTiter Glo-3D was purchased from Progema; catalog No: G9683; 384-well sphere plates were purchased from Corning; catalog No: 3830; white opaque 384-well plates were purchased from Corning; catalog No: 3570; cell counters were purchased from CHEMOMETEC; model: NC-200; microplate reader was purchased from PerkinElmer; model: Envison;
(§2) AsPC-1 is an endogenous human pancreatic cancer cell containing KRAS^G12D mutation, cultured in RPMI-1640 medium containing 10% FBS; AGS is a human gastric cancer cell line containing KRAS^G12D, cultured in F-12K medium containing 10% FBS. Cells in the logarithmic growth phase were taken, digested with trypsin (containing EDTA), collected, and counted. 800 AsPC-1 cells/well or 400 AGS cells/well, respectively, were seeded in a 384-well sphere plate and cultured overnight at 5% CO2 to establish a 3D cell model. 1000X stock solutions of compounds at a 3.16-fold concentration gradient of were prepared using DMSO, diluted 100-fold into a 10X compound stock solution using the medium described above. The 10X compound stock solution was added to each cell on 2nd day after cell seeding at a final concentration of 1X and a DMSO content of 0.1%. DMSO was used as a control in the experiment, and the medium was used as blank. After the addition of the compounds, the cells were incubated for 5 days. 30 μl of CellTiter-Glo work solution was added to each well, mixed well, and incubated for 30 minutes. After standing at room temperature for 30 minutes, 40 μl of the mixed solution was transferred to an opaque 384-well plate with a white clear bottom. Luminescence chemiluminescence value was read by a microplate reader, and the cell proliferation inhibition rate (IR (%)=(RLU control-RLU compound)/(RLU control-RLU blank)×100%) was calculated. The gradiently diluted concentration of the compounds and corresponding cell proliferation inhibition rate were fitted using XLFit four-parameters method, and the IC50 value was calculated. […] The results of some exemplary compounds are shown in Table 2 (“−” represents untested).

[2] = tested on: AsPC-1 cells (KRAS G12D mutation); experiment: Cell proliferation inhibition assay, 3D, CellTiter-Glo 3D, AsPC-1; details: AsPC-1 3D sphere model, 5 days incubation
From the text: as §1, §2

| Compound | IC50 [1] | IC50 (AGS cells (KRAS G12D)) | IC50 [2] | IC50 ([1]; Homo sapiens) | IC50 (AGS cells (KRAS G12D); Homo sapiens, 120 h) | IC50 ([2]; Homo sapiens, ASPC1, 120 h) |
| --- | --- | --- | --- | --- | --- | --- |
| 5-ethynyl-3-fluoro-4-((58,5aS,6S,9R)-1-fluoro-S-methyl-12-((1-(morpholinomethyl)cyclopropyl)methoxy)-5a,6,7,8,9,10-hexahydro-5H-4-oxa-3,10a, 11, 13,14-pentaaza-6,9-methanonaphtho[1,8-ab]heptalene-2-yl) naphthalen-2-amine [Example Z707] | 0.95 nM | 7.44 nM | 5.24 nM | – | – | – |
| C#Cc1c(F)ccc2cccc(-c3nc4c5c(nc(OC[C@@]67CCCN6C[C@@H]6C[C@@H]67)nc5c3F)N3C[C@H]5CC[C@H](N5)[C@H]3[C@H](C)O4)c12 (single isomer, unassigned) [Example Z626-2] | – | – | – | 20.6 nM | 28.2 nM | 56.6 nM |
| C#Cc1c(F)ccc2cccc(-c3nc4c5c(nc(OC[C@@]67CCCN6C[C@H]6C[C@H]67)nc5c3F)N3C[C@H]5CC[C@H](N5)[C@H]3[C@H](C)O4)c12 (single isomer, unassigned) [Example Z627-2] | – | – | – | 59.3 nM | 83.4 nM | 287 nM |
| C#Cc1c(F)ccc2cccc(-c3nc4c5c(nc(OC[C@]67CCCN6CC(=C)C7)nc5c3F)N3C[C@H]5CC[C@H](N5)[C@H]3[C@H](C)O4)c12 (single isomer, unassigned) [Example Z636] | – | – | – | 10.5 nM | 10.9 nM | 30.6 nM |
| C#Cc1c(F)ccc2cccc(-c3nc4c5c(nc(OC[C@]67CCCN6CCC7=C)nc5c3F)N3C[C@H]5CC[C@H](N5)[C@H]3[C@H](C)O4)c12 (single isomer, unassigned) [Example Z638] | – | – | – | 7.79 nM | 19.7 nM | 32 nM |
| C#Cc1c(F)ccc2cccc(-c3nc4c5c(nc(OC[C@]67C[C@@H](F)CN6CCC7=C)nc5c3F)N3C[C@H]5CC[C@H](N5)[C@H]3[C@H](C)O4)c12 (single isomer, unassigned) [Example Z689] | – | – | – | 6.61 nM | 19.3 nM | 17.4 nM |
| C#Cc1c(F)ccc2cccc(-c3nc4c5c(nc(OC[C@@]67C[C@@H](F)CN6CCC7=C)nc5c3F)N3C[C@H]5CC[C@H](N5)[C@H]3[C@H](C)O4)c12 (single isomer, unassigned) [Example Z690] | – | – | – | 16.7 nM | 31.5 nM | 45.9 nM |
| C#Cc1c(F)ccc2cccc(-c3nc4c5c(nc(OC[C@]67CC(=C)CN6CC[C@@H]7OC)nc5c3F)N3C[C@H]5CC[C@H](N5)[C@H]3[C@H](C)O4)c12 (single isomer, unassigned) [Example Z695] | 4.71 nM | 36.1 nM | 77.7 nM | – | – | – |
| C#Cc1c(F)ccc2cccc(-c3nc4c5c(nc(OC[C@@]67CC(=C)CN6CC[C@@H]7OC)nc5c3F)N3C[C@H]5CC[C@H](N5)[C@H]3[C@H](C)O4)c12 (single isomer, unassigned) [Example Z696] | 72.6 nM | 598 nM | 694 nM | – | – | – |
| C#Cc1cccc2cc(N)cc(-c3nc4c5c(nc(OC[C@@]67CCCN6CC(F)(F)C7)nc5c3F)N3C[C@H]5CC[C@H](N5)[C@H]3[C@H](C)O4)c12 (single isomer, unassigned) [Example Z735] | – | – | – | 5.62 nM | 35.2 nM | 18.1 nM |
| CCc1cccc2cc(O)cc(-c3nc4c5c(nc(OC[C@@]67CCCN6C[C@H](F)C7)nc5c3F)N3C[C@H]5CC[C@H](N5)[C@H]3CO4)c12 [Example Z140-1, 5-Ethyl-4-((5aS,6S,9R)-1-Fluoro-12-(((2R,7aS)-2-Fluorotetrahydro-1H-Pyrrolizin-7a (5H)-Yl)Methoxy)-5a,6,7,8,9,10-Hexahydro-5H-4-Oxa-3,10a,11,13,14-Pentaaza-6,9-Methanonaphtho[1,8-Ab]Heptalen-2-Yl) Naphthalen-2-Ol] | – | – | – | 2.85 nM | 4 nM | 21.1 nM |
| C#Cc1cccc2cccc(-c3nc4c5c(nc(OC[C@@]67CCCN6C[C@H](F)C7)nc5c3F)N3C[C@H]5CC[C@H](N5)[C@H]3[C@H](C)O4)c12 [Example Z360-1, (5S,5aS,6S,9R)-2-(8-ethynylnaphthalen-1-yl)-1-fluoro-12-(((2R,7aS)-2-fluorotetrahydro-1H-pyrrolizin-7a (5H)-yl)methoxy)-5-methyl-5a,6,7,8,9,10-hexahydro-5H-4-oxa-3,10a, 11,13,14-pentaaza-6,9-methanonaphtho[1,8-ab]heptalene] | – | – | – | 29.9 nM | 27.8 nM | 36.4 nM |
| C=C1CN2CCCC2(COc2nc3c4c(nc(-c5cccc6cccc(Cl)c56)c(F)c4n2)O[C@@H](CC)[C@@H]2[C@@H]4CC[C@H](CN32)N4)C1 (stereo partly drawn) [Example Z596, (5S,5aS,6S,9R)-2-(8-chloronaphthalen-1-yl)-5-ethyl-1-fluoro-12-((2-methylenetetrahydro-1H-pyrrolizin-7a (5H)-yl)methoxy)-5a,6,7,8,9,10-hexahydro-5H-4-oxa-3,10a,11,13,14-pentaaza-6,9-methanonaphtho[1,8-ab]heptalene] | – | – | – | – | 268 nM | 411 nM |
| C#Cc1c(F)ccc2cccc(-c3nc4c5c(nc(OCC67CC(=C)CN6C[C@@H](F)C7)nc5c3F)N3C[C@H]5CC[C@H](N5)[C@H]3[C@H](C)O4)c12 (stereo partly drawn) [Example Z634, (5S,5aS,6S,9R)-2-(8-ethynyl-7-fluoronaphthalen-1-yl)-1-fluoro-12-(((2S)-2-fluoro-6-methylenetetrahydro-1H-pyrrolizin-7a (5H)-yl)methoxy)-5-methyl-5a,6,7,8,9,10-hexahydro-5H-4-oxa-3,10a,11,13,14-pentaaza-6,9-methanonaphtho[1,8-ab]heptalene] | – | – | – | – | – | 883 nM |
| C#Cc1c(F)ccc2cccc(-c3nc4c5c(nc(OCC67C[C@H](OC)CN6CCC7=C)nc5c3F)N3C[C@H]5CC[C@H](N5)[C@H]3[C@H](C)O4)c12 (stereo partly drawn) [Example Z694, (5S,5aS,6S,9R)-2-(8-ethynyl-7-fluoronaphthalen-1-yl)-1-fluoro-12-(((6S)-6-methoxy-1-methylenetetrahydro-1H-pyrrolizin-7a (5H)-yl)methoxy)-5-methyl-5a,6,7,8,9,10-hexahydro-5H-4-oxa-3,10a, 11,13,14-pentaaza-6,9-methanonaphtho[1,8-ab]heptalene] | – | – | – | – | 397 nM | 405 nM |
| C#Cc1c(F)ccc2cccc(-c3nc4c5c(nc(OCC67CC(=C)CN6CC[C@H]7OC)nc5c3F)N3C[C@H]5CC[C@H](N5)[C@H]3[C@H](C)O4)c12 (stereo partly drawn) [Example Z704, (58,5aS,6S,9R)-2-(8-ethynyl-7-fluoronaphthalen-1-yl)-1-fluoro-12-(((1R)-1-methoxy-6-methylenetetrahydro-1H-pyrrolizin-7a (5H)-yl)methoxy)-5-methyl-5a,6,7,8,9,10-hexahydro-5H-4-oxa-3,10a, 11, 13,14-pentaaza-6,9-methanonaphtho[1,8-ab]heptalene] | – | – | – | 542 nM | – | 688 nM |
